Reference: patent publication US9499535B2, “Kinase inhibitors” (ORIGENIS GMBH, priority 2011, dated 2016)

Experiments:
LRRK2 = LRRK2 (Homo sapiens, UniProt Q5S007); assay: LRRK2 assay (LanthaScreen Eu Kinase Binding Assay); conditions: 5 nM LRRK2, 10 nM tracer 236, RT 1 h; read-out: LRRK2 Activites: IC50
Method in brief: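 Kinase binding was detected by europium anti-tag antibody FRET with a competing tracer, so inhibitor binding lowers the FRET signal. IC50 came from a variable-slope sigmoidal fit of emission ratio against inhibitor concentration.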

SYK kinase = target: T1, SYK kinase (Homo sapiens, UniProt P43405); assay: SYK assay (OMNIA Kinase Assay, Invitrogen); type: biochemical; conditions: apparent Ki calculated from the IC50 using the Cheng-Prusoff equation; 1 mM ATP, 10 μM Peptide Substrate; read-out: SYK Activities: Ki
T1 construct: purchased Invitrogen, Carlsbad
Method in brief: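 Continuous SOX-fluorescence (Omnia) readout of Tyr 7 peptide (10 μM) phosphorylation with 1 mM ATP and 0.2 mM DTT at 30° C, started by SYK addition. Fluorescence (λex 360/λem 485 nm) was read every 30 s for 30 min. IC50 from velocity vs concentration; apparent Ki via Cheng-Prusoff.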

MYLK = MYLK (Homo sapiens, UniProt Q15746); assay: MYLK assay (LanthaScreen Eu Kinase Binding Assay); conditions: 5 nM MYLK, 30 nM tracer 236, RT 1 h; read-out: MYLK Activites: IC50
Method in brief: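 TR-FRET tracer-displacement binding: 5 nM MYLK with 2 nM Eu-anti-GST antibody and 30 nM tracer 236 in kinase buffer A, 1 h at RT. The 665/615 nm emission ratio was plotted against inhibitor concentration; IC50 from variable-slope sigmoidal fit.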

Chain of LRRK2 (Q5S007 970-2527 limits assumed): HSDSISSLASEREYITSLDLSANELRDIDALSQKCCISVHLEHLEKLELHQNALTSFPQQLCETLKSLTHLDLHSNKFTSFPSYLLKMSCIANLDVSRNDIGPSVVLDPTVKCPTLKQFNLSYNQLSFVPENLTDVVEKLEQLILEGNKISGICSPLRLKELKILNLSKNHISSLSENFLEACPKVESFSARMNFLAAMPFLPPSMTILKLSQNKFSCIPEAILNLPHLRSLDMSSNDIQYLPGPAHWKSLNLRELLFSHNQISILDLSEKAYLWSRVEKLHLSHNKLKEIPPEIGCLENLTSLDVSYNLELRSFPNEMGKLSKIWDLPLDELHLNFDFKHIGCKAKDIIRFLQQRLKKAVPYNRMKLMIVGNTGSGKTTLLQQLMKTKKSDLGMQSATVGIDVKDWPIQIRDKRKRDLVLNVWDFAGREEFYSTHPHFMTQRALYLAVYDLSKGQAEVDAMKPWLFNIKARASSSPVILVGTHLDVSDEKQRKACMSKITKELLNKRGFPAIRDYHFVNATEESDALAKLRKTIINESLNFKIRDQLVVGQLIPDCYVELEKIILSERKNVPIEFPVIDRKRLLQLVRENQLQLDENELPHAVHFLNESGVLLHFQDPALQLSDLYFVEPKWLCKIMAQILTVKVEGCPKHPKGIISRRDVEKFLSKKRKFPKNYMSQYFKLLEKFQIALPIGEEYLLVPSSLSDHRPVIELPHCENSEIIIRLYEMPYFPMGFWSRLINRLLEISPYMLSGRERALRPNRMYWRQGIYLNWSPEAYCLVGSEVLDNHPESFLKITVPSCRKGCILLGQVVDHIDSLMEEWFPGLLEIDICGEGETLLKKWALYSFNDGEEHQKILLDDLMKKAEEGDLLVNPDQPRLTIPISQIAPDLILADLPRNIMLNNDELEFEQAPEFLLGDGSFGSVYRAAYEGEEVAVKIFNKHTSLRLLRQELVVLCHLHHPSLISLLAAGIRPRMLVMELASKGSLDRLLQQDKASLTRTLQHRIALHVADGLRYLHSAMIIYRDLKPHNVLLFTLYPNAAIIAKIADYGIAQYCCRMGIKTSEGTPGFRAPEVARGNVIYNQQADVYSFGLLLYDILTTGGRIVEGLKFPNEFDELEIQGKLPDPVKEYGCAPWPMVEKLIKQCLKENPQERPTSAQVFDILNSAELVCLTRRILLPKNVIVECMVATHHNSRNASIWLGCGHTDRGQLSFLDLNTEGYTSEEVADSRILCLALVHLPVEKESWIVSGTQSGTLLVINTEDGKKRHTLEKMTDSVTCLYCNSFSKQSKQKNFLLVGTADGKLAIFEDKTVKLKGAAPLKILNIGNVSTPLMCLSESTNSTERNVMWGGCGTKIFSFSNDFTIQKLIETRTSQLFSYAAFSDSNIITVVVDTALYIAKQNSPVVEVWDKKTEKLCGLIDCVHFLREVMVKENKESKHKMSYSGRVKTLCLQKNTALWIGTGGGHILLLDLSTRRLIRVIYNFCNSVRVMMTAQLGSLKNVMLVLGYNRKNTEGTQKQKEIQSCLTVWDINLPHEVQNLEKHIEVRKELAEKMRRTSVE
Chain of MYLK (Q15746 whole entry): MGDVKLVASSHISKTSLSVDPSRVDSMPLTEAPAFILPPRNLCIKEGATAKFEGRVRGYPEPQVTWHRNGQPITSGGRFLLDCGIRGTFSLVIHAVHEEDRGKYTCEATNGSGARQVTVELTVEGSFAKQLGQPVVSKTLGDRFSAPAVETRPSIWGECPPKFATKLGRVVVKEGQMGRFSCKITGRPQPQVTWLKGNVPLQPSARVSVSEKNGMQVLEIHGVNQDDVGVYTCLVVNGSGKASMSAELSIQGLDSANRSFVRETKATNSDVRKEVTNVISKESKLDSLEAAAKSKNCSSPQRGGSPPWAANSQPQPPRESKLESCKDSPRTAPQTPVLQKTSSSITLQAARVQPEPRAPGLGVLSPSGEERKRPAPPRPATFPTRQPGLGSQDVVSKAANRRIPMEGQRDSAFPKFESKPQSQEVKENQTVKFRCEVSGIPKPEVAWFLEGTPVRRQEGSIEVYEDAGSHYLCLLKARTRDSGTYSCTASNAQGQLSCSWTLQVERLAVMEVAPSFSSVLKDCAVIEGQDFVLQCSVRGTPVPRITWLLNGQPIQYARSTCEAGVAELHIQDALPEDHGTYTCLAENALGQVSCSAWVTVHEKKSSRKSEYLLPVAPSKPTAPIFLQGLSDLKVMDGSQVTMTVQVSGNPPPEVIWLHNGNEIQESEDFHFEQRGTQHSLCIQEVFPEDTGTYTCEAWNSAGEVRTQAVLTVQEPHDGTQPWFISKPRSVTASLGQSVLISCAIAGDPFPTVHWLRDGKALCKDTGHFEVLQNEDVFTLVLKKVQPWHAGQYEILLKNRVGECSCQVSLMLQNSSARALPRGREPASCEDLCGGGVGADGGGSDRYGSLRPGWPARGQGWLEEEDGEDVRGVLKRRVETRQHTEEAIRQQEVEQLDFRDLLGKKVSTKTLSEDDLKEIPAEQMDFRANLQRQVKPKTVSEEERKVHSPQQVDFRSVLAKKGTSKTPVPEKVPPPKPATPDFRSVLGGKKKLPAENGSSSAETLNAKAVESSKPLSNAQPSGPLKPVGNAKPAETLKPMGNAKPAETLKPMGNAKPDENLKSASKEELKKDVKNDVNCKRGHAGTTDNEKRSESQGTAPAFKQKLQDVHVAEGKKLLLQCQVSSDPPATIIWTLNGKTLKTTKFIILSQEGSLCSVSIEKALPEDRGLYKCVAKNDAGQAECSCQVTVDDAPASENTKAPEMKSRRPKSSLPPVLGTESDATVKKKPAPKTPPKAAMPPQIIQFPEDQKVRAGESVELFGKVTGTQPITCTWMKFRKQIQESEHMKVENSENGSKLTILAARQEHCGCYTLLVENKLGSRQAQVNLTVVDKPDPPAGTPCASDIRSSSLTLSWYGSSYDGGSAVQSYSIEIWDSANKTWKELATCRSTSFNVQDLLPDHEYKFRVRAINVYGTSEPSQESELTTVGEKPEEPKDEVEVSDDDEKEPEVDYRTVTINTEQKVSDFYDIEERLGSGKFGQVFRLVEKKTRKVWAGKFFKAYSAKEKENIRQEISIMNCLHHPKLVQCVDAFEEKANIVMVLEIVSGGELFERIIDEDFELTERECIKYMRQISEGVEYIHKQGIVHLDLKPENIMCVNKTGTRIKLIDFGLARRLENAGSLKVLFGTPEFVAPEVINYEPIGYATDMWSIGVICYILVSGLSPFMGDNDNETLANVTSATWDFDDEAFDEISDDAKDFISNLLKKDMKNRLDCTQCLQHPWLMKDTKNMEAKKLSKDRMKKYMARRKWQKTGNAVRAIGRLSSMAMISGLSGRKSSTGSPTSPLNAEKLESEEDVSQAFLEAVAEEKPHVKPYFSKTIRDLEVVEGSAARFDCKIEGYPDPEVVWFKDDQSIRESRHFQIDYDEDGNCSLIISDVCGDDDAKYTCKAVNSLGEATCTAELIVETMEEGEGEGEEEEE

Compound	IC50 (LRRK2)	Ki (SYK kinase)	IC50 (MYLK)
COc1ccc2nc(Nc3ccc(CC(N)=O)cc3)c3[nH]ncc3c2c1 [Example #112, 2-[4-(8-Methoxy-3H-pyrazolo[3,4-c]quinolin-4-ylamino)-phenyl]-acetamide]	100 to 1000 nM	10 to 100 nM	< 5000 nM
COc1cccc2c1nc(Nc1ccc3[nH]ncc3c1)c1n[nH]cc12 [Example #268, (1H-Indazol-5-yl)-(6-methoxy-2H-pyrazolo[3,4-c]quinolin-4-yl)-amine]	100 to 1000 nM	10 to 100 nM	< 5000 nM
COc1ccc2nc(Nc3ccc(NCCN(C)C)nc3)c3n[nH]cc3c2c1 [Example #254, N2-(2-(dimethylamino)ethyl)-N5-(8-methoxy-2H-pyrazolo[3,4-c]quinolin-4-yl)pyridine-2,5-diamine]	100 to 1000 nM	10 to 100 nM	< 5000 nM
COc1ccc2nc(Nc3ccc(C(=O)N4CCOCC4)cc3)c3n[nH]cc3c2c1 [Example #232, [4-(8-Methoxy-2H-pyrazolo[3,4-c]quinolin-4-ylamino)-phenyl]-morpholin-4-yl-methanone]	100 to 1000 nM	10 to 100 nM	< 5000 nM
COc1ccc2nc(Nc3ccc(C(=O)N(C)C)cc3)c3n[nH]cc3c2c1 [Example #303, 4-((8-methoxy-2H-pyrazolo[3,4-c]quinolin-4-yl)amino)-N,N-dimethylbenzamide]	10 to 100 nM	100 to 1000 nM	< 5000 nM
COc1ccc2nc(Nc3cnc4c(c3)CN(C)CC4)c3n[nH]cc3c2c1 [Example #230, (8-Methoxy-2H-pyrazolo[3,4-c]quinolin-4-yl)-(6-methyl-5,6,7,8-tetrahydro-[1,6]naphthyridin-3-yl)-amine]	100 to 1000 nM	100 to 1000 nM	< 5000 nM
COc1cc(OC)c2nc(Nc3ccc(CN(C)C)cc3)c3n[nH]cc3c2c1 [Example #284, (6,8-Dimethoxy-2H-pyrazolo[3,4-c]quinolin-4-yl)-(4-dimethylaminomethyl-phenyl)-amine]	100 to 1000 nM	10 to 100 nM	< 5000 nM
Brc1ccc2nc(Nc3ccc4[nH]cnc4c3)c3n[nH]cc3c2c1 [Example #34, (1H-Benzoimidazol-5-yl)-(8-bromo-2H-pyrazolo[3,4-c]quinolin-4-yl)-amine]	100 to 1000 nM	10 to 100 nM	< 5000 nM
Cc1[nH]nc2c(Nc3ccc4cn[nH]c4c3)nc3ccccc3c12 [Example #209, (1H-Indazol-6-yl)-(1-methyl-2H-pyrazolo[3,4-c]quinolin-4-yl)-amine]	10 to 100 nM	< 10 nM	< 5000 nM
COc1cc(OC)c2nc(Nc3ccc(C(=O)N4CCN(C)CC4)cc3)c3n[nH]cc3c2c1 [Example #283, (4-((6,8-dimethoxy-2H-pyrazolo[3,4-c]quinolin-4-yl)amino)phenyl)(4-methylpiperazin-1-yl)methanone]	100 to 1000 nM	10 to 100 nM	< 5000 nM
COc1ccc2nc(Nc3ccc4nc(C)[nH]c4c3)c3n[nH]cc3c2c1 [Example #55, (8-Methoxy-2H-pyrazolo[3,4-c]quinolin-4-yl)-(2-methyl-3H-benzoimidazol-5-yl)-amine]	100 to 1000 nM	10 to 100 nM	< 5000 nM
COc1ccc2nc(Nc3cccc(S(N)(=O)=O)c3)c3n[nH]cc3c2c1 [Example #131, 3-(8-Methoxy-2H-pyrazolo[3,4-c]quinolin-4-ylamino)-benzenesulfonamide]	10 to 100 nM	100 to 1000 nM	< 5000 nM
COc1ccc2nc(Nc3cccc(N4CCN(C)CC4)c3)c3n[nH]cc3c2c1 [Example #228, (8-Methoxy-2H-pyrazolo[3,4-c]quinolin-4-yl)-[3-(4-methyl-piperazin-1-yl)-phenyl]-amine]	100 to 1000 nM	10 to 100 nM	< 5000 nM
COc1cc(OC)c2nc(Nc3ccc(OC)c(OC)c3)c3n[nH]cc3c2c1 [Example #251, (3,4-Dimethoxy-phenyl)-(6,8-dimethoxy-2H-pyrazolo[3,4-c]quinolin-4-yl)-amine]	100 to 1000 nM	< 10 nM	< 5000 nM
COc1ccc2nc(Nc3ccccc3)c3n[nH]cc3c2c1 [Example #13, (8-Methoxy-2H-pyrazolo[3,4-c]quinolin-4-yl)-phenyl-amine]	100 to 1000 nM	10 to 100 nM	< 5000 nM
COc1ccc2nc(Nc3cccc(C(N)=O)c3)c3n[nH]cc3c2c1 [Example #52, 3-(8-Methoxy-2H-pyrazolo[3,4-c]quinolin-4-ylamino)-benzamide]	100 to 1000 nM	100 to 1000 nM	< 5000 nM

Compound	IC50 (LRRK2)	Ki (SYK kinase)	IC50 (MYLK)
COc1ccc2nc(Nc3ccc(N4CCN(C)CC4)nc3)c3n[nH]cc3c2c1 [Example #165, (8-Methoxy-2H-pyrazolo[3,4-c]quinolin-4-yl)-[6-(4-methyl-piperazin-1-yl)-pyridin-3-yl]-amine]	10 to 100 nM	10 to 100 nM	< 5000 nM
COc1ccc2nc(Nc3ccc(OC)c(NC(C)=O)c3)c3n[nH]cc3c2c1 [Example #142, N-[2-Methoxy-5-(8-methoxy-2H-pyrazolo[3,4-c]quinolin-4-ylamino)-phenyl]-acetamide]	100 to 1000 nM	10 to 100 nM	< 5000 nM
COc1ccc2nc(Nc3cccc([S+](C)[O-])c3)c3n[nH]cc3c2c1 (stereo not drawn) [Example #346, 8-methoxy-N-(3-(methylsulfinyl)phenyl)-2H-pyrazolo[3,4-c]quinolin-4-amine]	100 to 1000 nM	100 to 1000 nM	< 5000 nM
COc1cccc2nc(Nc3ccc(N4CCN(C(C)=O)CC4)cc3)c3[nH]ncc3c12 [Example #340, 1-(4-(4-((9-methoxy-3H-pyrazolo[3,4-c]quinolin-4-yl)amino)phenyl)piperazin-1-yl)ethan-1-one]	10 to 100 nM	10 to 100 nM	< 5000 nM
COc1cc2nc(Nc3cc(C4CC4)[nH]n3)c3n[nH]cc3c2cc1OC [Example #150, (5-Cyclopropyl-1H-pyrazol-3-yl)-(7,8-dimethoxy-2H-pyrazolo[3,4-c]quinolin-4-yl)-amine]	10 to 100 nM	10 to 100 nM	< 5000 nM
COc1ccc2nc(Nc3ccc4c(c3)COC4)c3n[nH]cc3c2c1 [Example #147, (1,3-Dihydro-isobenzofuran-5-yl)-(8-methoxy-2H-pyrazolo[3,4-c]quinolin-4-yl)-amine]	10 to 100 nM	10 to 100 nM	< 5000 nM
COc1ccc2nc(Nc3ccc(CCN4CCOCC4)cc3)c3n[nH]cc3c2c1 [Example #193, (8-Methoxy-2H-pyrazolo[3,4-c]quinolin-4-yl)-[4-(2-morpholin-4-yl-ethyl)-phenyl]-amine]	100 to 1000 nM	10 to 100 nM	< 5000 nM
O=C1COc2ccc(Nc3nc4ccc(F)cc4c4cn[nH]c34)cc2N1 [Example #324, 6-((8-fluoro-3H-pyrazolo[3,4-c]quinolin-4-yl)amino)-2H-benzo[b][1,4]oxazin-3(4H)-one]	100 to 1000 nM	10 to 100 nM	< 5000 nM
COc1ccc2nc(Nc3ccc(C(=O)O)cc3)c3n[nH]cc3c2c1 [Example #57, 4-(8-Methoxy-2H-pyrazolo[3,4-c]quinolin-4-ylamino)-benzoic-acid]	100 to 1000 nM	10 to 100 nM	< 5000 nM
COc1ccc(Nc2nc3cc(OC)c(OC)cc3c3c[nH]nc23)cc1O [Example #152, 5-(7,8-Dimethoxy-2H-pyrazolo[3,4-c]quinolin-4-ylamino)-2-methoxy-phenol]	100 to 1000 nM	10 to 100 nM	< 5000 nM
COc1cccc2c1nc(Nc1ccc3cn[nH]c3c1)c1n[nH]cc12 [Example #171, (1H-Indazol-6-yl)-(6-methoxy-2H-pyrazolo[3,4-c]quinolin-4-yl)-amine]	100 to 1000 nM	10 to 100 nM	< 5000 nM
COc1ccc2nc(Nc3ccc(N4CCN(CCN(C)C)CC4)cc3)c3n[nH]cc3c2c1 [Example #281, {4-[4-(2-Dimethylamino-ethyl)-piperazin-1-yl]-phenyl}-(8-methoxy-2H-pyrazolo[3,4-c]quinolin-4-yl)-amine]	10 to 100 nM	10 to 100 nM	< 5000 nM
COc1ccc2nc(Nc3ccc(C(=O)N(C)CCN(C)C)cc3)c3n[nH]cc3c2c1 [Example #300, N-(2-(dimethylamino)ethyl)-4-((8-methoxy-2H-pyrazolo[3,4-c]quinolin-4-yl)amino)-N-methylbenzamide]	10 to 100 nM	10 to 100 nM	< 5000 nM
COc1ccc2nc(Nc3ccc4c(c3)CN(C)C4)c3n[nH]cc3c2c1 [Example #294, 8-methoxy-N-(2-methylisoindolin-5-yl)-2H-pyrazolo[3,4-c]quinolin-4-amine]	100 to 1000 nM	10 to 100 nM	< 5000 nM
COc1ccc2nc(Nc3ccc4c(c3)NC(=O)CCC4)c3n[nH]cc3c2c1 [Example #188, 8-(8-Methoxy-2H-pyrazolo[3,4-c]quinolin-4-ylamino)-1,3,4,5-tetrahydro-benzo[b]azepin-2-one]	10 to 100 nM	< 10 nM	< 5000 nM
CNS(=O)(=O)c1cccc(Nc2nc3ccc(OC)cc3c3c[nH]nc23)c1 [Example #348, 3-((8-methoxy-2H-pyrazolo[3,4-c]quinolin-4-yl)amino)-N-methylbenzenesulfonamide]	10 to 100 nM	10 to 100 nM	< 5000 nM
